Experimental data as given in patent US12403144B2, “HECT E3 ligase inhibitors and uses thereof” (IFOM FONDAZIONE ISTITUTO FIRC DI ONCOLOGIA MOLECOLARE, priority 2019, dated 2025).
Counter-ions that a name gives are not always drawn.

Molecular target: T1, untagged HECT of NEDD4 wild-type (WT) (E3 ligase) (Homo sapiens, UniProt P46934)
T1 construct: untagged HECT of NEDD4 wild-type (WT) (E3 ligase); made in house
T1 sequence (P46934 519-900 isoform P46934-4 limits assumed): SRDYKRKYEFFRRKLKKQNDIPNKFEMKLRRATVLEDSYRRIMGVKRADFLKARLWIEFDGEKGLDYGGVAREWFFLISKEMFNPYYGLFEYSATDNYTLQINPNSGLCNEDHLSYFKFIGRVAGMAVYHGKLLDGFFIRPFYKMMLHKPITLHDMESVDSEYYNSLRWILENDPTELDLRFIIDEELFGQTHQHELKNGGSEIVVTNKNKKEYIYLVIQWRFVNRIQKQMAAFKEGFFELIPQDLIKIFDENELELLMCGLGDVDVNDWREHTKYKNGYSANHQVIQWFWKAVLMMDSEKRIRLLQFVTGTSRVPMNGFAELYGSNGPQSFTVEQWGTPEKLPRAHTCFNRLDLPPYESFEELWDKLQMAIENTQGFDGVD
Assay: In vitro ubiquitination assay TR-FRET based (self-ubiquitination of NEDD4)
Format: biochemical
Conditions: at 11 μM; pre-incubated for 1 hour; AUC of 120 minutes kinetic; read-out: percentages of inhibition (NEDD4)
Text: FIG. 1: TR-FRET kinetic assay performed with compound 12. […] Reactions were initiated with the addition of ATP. As labeled ubiquitin molecules become incorporated into chains they come into close proximity, resulting in energy transfer and increased signal to background detection. The activity of the enzyme is continuously and real time detected and it is expressed as % of signal/background during the time.
In order to quantitatively measure the self-ubiquitination process of the E3 HECT ligase NEDD4 the inventors employed a TR-FRET based assay. TR-FRET technology exploits the long-lasting emission of lanthanide fluorescence to interpose a short time-delay between FRET donor excitation and emission. This phenomenon enables to isolate real fluorescent signals from short-lived background emissions, thus reducing possible interference from compounds.
In the present study, elongation of the ubiqutin chain by NEDD4 is measured by adding bacterially expressed E1, His-tagged UBE2D3 (E2) and untagged HECT of NEDD4 wild-type (WT) (E3 ligase) (named in FIG. 1 as WT) enzymes to a mixture of Eu-cryptate ubiquitin, Cy5-ubiquitin and wild-type ubiquitin, combined in a ratio optimized for TR-FRET based conjugation (100×TRF-Ubiquitin Mix, SBB-TR0051). […] Bacterially expressed E1, His-tagged UBE2D3 (E2), untagged HECT NEDD4 (E3 ligase) WT and NEDD4 C/A enzymes were produced and purified as reported in E. Maspero et al. Methods Mol Biol. 1449:153-60 (2016).
Enzymatic incorporation of the labeled TRF-Ubiquitin mix into chains leads to an increase in fluorescence emission at 665 nm (emission of the acceptor Cy5-Ubiquitin, Emacceptor) and decrease at emission wavelength 620 nm (emission of the donor Eu-cryptate Ubiquitin, Emdonor).
The assay was performed in a 384-well plate format (Optiplate, Perkin Elmer, #6007290) on an automated liquid-handler (Hamilton STAR, Hamilton Robotics, Switzerland).
All compounds were dissolved in 100% DMSO and serially diluted in 96-well plates (from 100 μM to 0.005 μM).
Briefly, all reagents were thawed and kept on ice. A master mix containing E1, E2, E3 and TRF-Ubiquitin Mix (SBB-TR0051) diluted in the assay buffer (Tris-HCl pH 7.6 25 mM, NaCl 100 mM, MgCl2 5 mM and Tween 0.01%) is prepared and 50 μl/well is dispensed in a 384 well plate. 3 μl of compounds dissolved in DMSO in the above-indicated concentration range were added and pre-incubated for 1 hour. Final E1, E2 and E3 concentrations in the assay buffer (Tris-HCl pH 7.6 25 mM, NaCl 100 mM, MgCl2 5 mM and Tween 0.01%) were 30, 350 and 50 nanomolars, respectively. The reaction was initiated with the addition of ATP (22 μl of 2 mM ATP, JenaBioscience, NU-1010) and was allowed to proceed for 120 minutes, measuring fluorescence emission at 665 nm and 620 nm in real-time on an EnSpire microplate reader (Perkin Elmer).
Kinetic raw data were analyzed by Area Under the Curve (AUC) method using Prism GraphPad software.
% signal/background corresponds to the following equation: (Experimental signal−Background signal)/Background signal×100%
Experimental signal corresponds to the signal obtained by the enzymatic reaction in presence of the vehicle (DMSO) and/or the different compound concentrations. Background signal corresponds to the signal obtained by the enzymatic reaction in absence of ATP.
The relative potency of the compounds was evaluated by dose-response curves following the enzymatic reaction of HECT NEDD4 WT in real time for 120 minutes.
Percentage of inhibition is then determined by the equation: % inhibition=100×[1−(X)/(MAX)],
where MAX correspond to AUC of the vehicle (DMSO) treated enzyme, and X corresponds to the AUC of the compound treated enzyme.

Row | inhibition at 11 µM [%] | SMILES
1 | 30 to 50 | COC(=O)/C=C/CN(C)CCCN1c2ccccc2CCc2ccc(Cl)cc21 [Compound 1, Methyl (E)-4-[3-(3-chloro-10,11-dihydro-5H-dibenzo[b,f]azepin-5-yl)propyl-methyl-amino]but-2-enoate hydrochloride]
2 | > 50 | CCOC(=O)/C=C/CNCCCN1c2ccccc2COc2ccc(Cl)cc21 [Compound 2, Ethyl (E)-4-[3-(7-chlorodibenzo[b,e][1,4]oxazepin-5(11H)-yl)propylamino]but-2-enoate maleate]
3 | 30 to 50 | CCOC(=O)/C=C/CNCCCN1c2ccccc2COc2ccc(C(F)(F)F)cc21 [Compound 3, Ethyl (E)-4-{3-[7-(trifluoromethyl)dibenzo[b,e][1,4]oxazepin-5(11H)-yl]propylamino}but-2-enoate maleate]
4 | > 50 | CCOC(=O)/C=C/CNCCCN1c2ccccc2CCc2ccc(Cl)cc21 [Compound 4, Ethyl (E)-4-[3-(3-chloro-10,11-dihydro-5H-dibenzo[b,f]azepin-5-yl)propylamino]but-2-enoate fumarate]
5 | > 50 | CON(C)C(=O)/C=C/CN(C)CCCN1c2ccccc2CCc2ccc(Cl)cc21 [Compound 6, (E)-4-[3-(3-Chloro-10,11-dihydro-5H-dibenzo[b,f]azepin-5-yl)propyl-methyl-amino]-N-methoxy-N-methyl-but-2-enamide]
6 | > 50 | CC(=O)/C=C/CN(C)CCCN1c2ccccc2CCc2ccc(Cl)cc21 [Compound 7, (E)-5-[3-(3-chloro-10,11-dihydro-5H-dibenzo[b,f]azepin-5-yl)propyl-methyl-amino]pent-3-en-2-one maleate]
7 | > 50 | CN(C/C=C/C(=O)c1ccccc1)CCCN1c2ccccc2CCc2ccc(Cl)cc21 [Compound 8, (E)-4-[3-(3-chloro-10,11-dihydro-5H-dibenzo[b,f]azepin-5-yl)propyl-methyl-amino]-1-phenyl-but-2-en-1-one]
8 | > 50 | CC(=O)/C=C/CN(C)CCCCN1c2ccccc2CCc2ccc(Cl)cc21 [Compound 10, (E)-5-[4-(3-chloro-10,11-dihydro-5H-dibenzo[b,f]azepin-5-yl)butyl-methyl-amino]pent-3-en-2-one maleate]
9 | 30 to 50 | CCOC(=O)/C=C/CNCCCN1c2ccccc2CCc2ccccc21 [Compound 11, Ethyl (E)-4-[3-(10,11-dihydro-5H-dibenzo[b,f]azepin-5-yl)propylamino]but-2-enoate fumarate]
10 | > 50 | CCOC(=O)/C=C/CNCCCCCN1c2ccccc2CCc2ccc(Cl)cc21 [Compound 13, Ethyl (E)-4-[5-(3-chloro-10,11-dihydro-5H-dibenzo[b,f]azepin-5-yl)pentylamino]but-2-enoate maleate]
11 | > 50 | CCOC(=O)/C=C/CNCCCN1c2ccccc2CCc2ccc([N+](=O)[O-])cc21 [Compound 14, Ethyl (E)-4-[3-(3-nitro-10,11-dihydro-5H-dibenzo[b,f]azepin-5-yl)propylamino]but-2-enoate maleate]
12 | > 50 | CCOC(=O)/C=C/CNCCCN1c2ccccc2CCc2ccc(Br)cc21 [Compound 15, Ethyl (E)-4-[3-(3-bromo-10,11-dihydro-5H-dibenzo[b,f]azepin-5-yl)propylamino]but-2-enoate maleate]
13 | < 30 | O=C(O)/C=C/CNCCCN1c2ccccc2CCc2ccc(Cl)cc21 [Compound 16, (E)-4-[3-(3-chloro-10,11-dihydro-5H-dibenzo[b,f]azepin-5-yl)propylamino]but-2-enoic acid 2,2,2-trifluoroacetate]
14 | < 30 | O=C(O)/C=C/CNCCCCN1c2ccccc2CCc2ccc(Cl)cc21 [Compound 17, (E)-4-[4-(3-chloro-10,11-dihydro-5H-dibenzo[b,f]azepin-5-yl)butylamino]but-2-enoic acid 2,2,2-trifluoroacetate]
15 | < 30 | NC(=O)/C=C/CNCCCN1c2ccccc2CCc2ccc(Cl)cc21 [Compound 18, (E)-4-{[3-(3-chloro-10,11-dihydro-5H-dibenzo[b,f]azepin-5-yl)propyl]amino}but-2-enamide hydrochloride]
16 | < 30 | CNC(=O)/C=C/CNCCCN1c2ccccc2CCc2ccc(Cl)cc21 [Compound 19, (E)-4-{[3-(3-chloro-10,11-dihydro-5H-dibenzo[b,f]azepin-5-yl)propyl]amino}-N-methyl-but-2-enamide hydrochloride]
17 | < 30 | CN(C)C(=O)/C=C/CNCCCN1c2ccccc2CCc2ccc(Cl)cc21 [Compound 20, (E)-4-{[3-(3-chloro-10,11-dihydro-5H-dibenzo[b,f]azepin-5-yl)propyl]amino}-N,N-dimethyl-but-2-enamide hydrochloride]
18 | < 30 | O=C(/C=C/CNCCCN1c2ccccc2CCc2ccc(Cl)cc21)Nc1ccccc1 [Compound 21, (E)-4-{[3-(3-chloro-10,11-dihydro-5H-dibenzo[b,f]azepin-5-yl)propyl]amino}-N-phenyl-but-2-enamide hydrochloride]
19 | > 50 | N#C/C=C/CNCCCN1c2ccccc2CCc2ccc(Cl)cc21 [Compound 22, (E)-4-{[3-(3-chloro-10,11-dihydro-5H-dibenzo[b,f]azepin-5-yl)propyl]amino}but-2-enenitrile hydrochloride]
20 | 30 to 50 | CCOC(=O)/C=C/CNCCCN1c2ccccc2NC(=O)c2ccc(Cl)cc21 [Compound 23, Ethyl (E)-4-{[3-(3-chloro-11-oxo-10,11-dihydro-5H-dibenzo[b,e][1,4]diazepin-5-yl)propyl]amino}but-2-enoate maleate]
21 | > 50 | CCOC(=O)/C=C/CNCCCCN1c2ccccc2NC(=O)c2ccc(Cl)cc21 [Compound 24, Ethyl (E)-4-{[4-(3-chloro-11-oxo-10,11-dihydro-5H-dibenzo[b,e][1,4]diazepin-5-yl)butyl]amino}but-2-enoate maleate]
22 | < 30 | CCOC(=O)/C=C/CNCCCN1c2ccccc2NC(=O)c2ccc(C(F)(F)F)cc21 [Compound 25, Ethyl (E)-4-{[3-(11-oxo-3-(trifluoromethyl)-10,11-dihydro-5H-dibenzo[b,e][1,4]diazepin-5-yl)propyl]amino}but-2-enoate maleate]
23 | > 50 | CCOC(=O)/C=C/CNCCCN1c2cc(Cl)ccc2NC(=O)c2ccccc21 [Compound 26, Ethyl (E)-4-{[3-(7-chloro-11-oxo-10,11-dihydro-5H-dibenzo[b,e][1,4]diazepin-5-yl)propyl]amino}but-2-enoate maleate]
24 | > 50 | CCOC(=O)/C=C/CNCCCN1c2cc(Cl)ccc2C(=O)N(C)c2ccccc21 [Compound 27, Ethyl (E)-4-{[3-(3-chloro-10-methyl-11-oxo-10,11-dihydro-5H-dibenzo[b,e][1,4]diazepin-5-yl)propyl]amino}but-2-enoate maleate]
